Source: ChEMBL document CHEMBL1156755, “Discovery of (Z)-5-(4-methoxybenzylidene)thiazolidine-2,4-dione, a readily available and orally active glitazone for the treatment of concanavalin A-induced acute liver injury of BALB/c mice” (J Med Chem, 2010)
Active and inactive are the calls of the source. No cut-off for these calls is given here.

Experiments:
[1] = tested on: RAW264.7; experiment: Inhibition of MCP1-induced chemotaxis in mouse RAW264.7 cells at 25 ug/mL relative to control; format: functional
[2] = tested on: Mus musculus; experiment: Effect on serum aspartate aminotransaminase level in concanavalin A-induced acute hepatitis model of BALB/c mouse at 50 mg/kg, po treated 0.5 hrs after concanavalin A challenge measured after 20 hrs (Rvb= 4997.9 +/- 2619.6); format: functional
[3] = tested on: Mus musculus; experiment: Effect on serum alanine aminotransaminase level in concanavalin A-induced acute hepatitis model of BALB/c mouse at 50 mg/kg, po treated 0.5 hrs after concanavalin A challenge measured after 20 hrs (Rvb= 5734.5 +/- 2599.5); format: functional
[4] = tested on: RAW264.7; experiment: Inhibition of MCP1-induced chemotaxis in mouse RAW264.7 cells; format: functional, cell-based
[5] = tested on: Mus musculus; experiment: Decrease in concanavalin A-induced hepatic cell necrosis in acute hepatitis model of BALB/c mouse at 50 mg/kg, ig treated 0.5 hrs after concanavalin A challenge measured after 20 hrs by H and E staining based histopathology study; format: functional, organism-based; design: dose 50 mg/kg
[6] = Half life in BALB/c mouse at 30 mg/kg, po; format: ADME, organism-based; design: dose 30 mg/kg, route oral; details: in vivo
[7] = tested on: Mus musculus; experiment: Toxicity in BALB/c mouse assessed as pathological changes in kidney at 50 mg/kg, ig after 20 hrs by H and E staining based histopathology study; format: organism-based; design: dose 50 mg/kg, route intragastric; details: in vivo, po
[8] = tested on: Mus musculus; experiment: Toxicity in BALB/c mouse assessed as pathological changes in lung at 50 mg/kg, ig after 20 hrs by H and E staining based histopathology study; format: organism-based; design: dose 50 mg/kg, route intragastric; details: in vivo, po
[9] = Tmax in BALB/c mouse at 30 mg/kg, po; format: ADME, organism-based; design: dose 30 mg/kg, route oral; details: in vivo
[10] = Oral bioavailability in BALB/c mouse at 30 mg/kg; format: ADME, organism-based; details: in vivo
[11] = tested on: Mus musculus; experiment: Toxicity in BALB/c mouse liver assessed as change in transaminase level at 50 mg/kg, ig after 20 hrs by H and E staining based histopathology study; format: organism-based; design: dose 50 mg/kg, route intragastric; details: in vivo, po
[12] = tested on: Mus musculus; experiment: Toxicity in BALB/c mouse assessed as pathological changes in heart at 50 mg/kg, ig after 20 hrs by H and E staining based histopathology study; format: organism-based; design: dose 50 mg/kg, route intragastric; details: in vivo, po
[13] = tested on: Mus musculus; experiment: Toxicity in BALB/c mouse assessed as pathological changes in liver at 50 mg/kg, ig after 20 hrs by H and E staining based histopathology study; format: organism-based; design: dose 50 mg/kg, route intragastric; details: in vivo, po
[14] = tested on: Mus musculus; experiment: Toxicity in BALB/c mouse assessed as pathological changes in spleen at 50 mg/kg, ig after 20 hrs by H and E staining based histopathology study; format: organism-based; design: dose 50 mg/kg, route intragastric; details: in vivo, po
[15] = tested on: Mus musculus; experiment: Plasma concentration in BALB/c mouse at 30 mg/kg, po; format: ADME, organism-based; design: dose 30 mg/kg, route oral; details: in vivo

Structure (SMILES) | inhibition at 25 µg/mL [1] | also measured
COc1ccc(/C=C2\SC(=O)NC2=O)cc1OC | 16.6% | –
CN(C)c1ccc(/C=C2\CC(=O)NC2=O)cc1 | 15.7% | –
O=C1NC(=O)/C(=C/c2ccc(Br)cc2)S1 | 16.9% | –
O=C1NC(=O)/C(=C/c2ccc3nccnc3c2)S1 | 36.9% | Activity [2]: 1084.5 U/L; Activity [3]: 1187.5 U/L; IC50 [4]: 5.31 µM
COc1ccc(C=C2C(=O)NC(=O)NC2=O)cc1 | 6.2% | –
CN(C)c1ccc(/C=C2\NC(=O)NC2=O)cc1 | 18.6% | –
COc1cc(/C=C2\CC(=O)NC2=O)ccc1O | 39.5% | Activity [2]: 3126.9 U/L; Activity [3]: 3304.1 U/L; IC50 [4]: 20.5 µM
O=C1NC(=S)NC(=O)C1=Cc1ccc(Cl)cc1 | 4.1% | –
COc1cc(C=C2C(=O)NC(=O)NC2=O)ccc1O | 4.1% | –
COc1ccc(/C=C2\NC(=O)NC2=O)cc1OC | 8.7% | –
COc1ccc(C=C2C(=O)NC(=S)NC2=O)cc1 | 27.4% | Activity [2]: 2109.7 U/L; Activity [3]: 3141.2 U/L; IC50 [4]: 11.2 µM; Activity [5]: Active
N=C1NC(=O)/C(=C/c2ccc(O)cc2)S1 [MIRIN] | 4.4% | –
COc1ccc(/C=C2\SC(=N)NC2=O)cc1OC | 9.4% | –
O=C1NC(=S)NC(=O)C1=Cc1ccccc1 | 10.2% | –
CN(C)c1ccc(C=C2C(=O)NC(=O)NC2=O)cc1 | 6.2% | –
COc1ccc(C=C2C(=O)NC(=O)NC2=O)cc1OC | 14.2% | –
COc1ccc(/C=C2\NC(=O)NC2=O)cc1 | 19.9% | –
O=C1NC(=O)C(=Cc2cccc(O)c2)C(=O)N1 | 15% | –
O=C1NC(=O)C(=Cc2ccc(Br)cc2)C(=O)N1 | 5.7% | –
O=C1C/C(=C\c2ccc(Br)cc2)C(=O)N1 | 14.3% | –
CN(C)c1ccc(/C=C2\SC(=O)NC2=O)cc1 | 15.8% | –
COc1cc(C=C2C(=O)NC(=S)NC2=O)ccc1O | 14.4% | –
O=C1C/C(=C\c2ccc(O)cc2)C(=O)N1 | 8.4% | –
N=C1NC(=O)/C(=C/c2ccc(Cl)cc2)S1 | 13% | –
COc1ccc(/C=C2\SC(=N)NC2=O)cc1 | 18.6% | –
COc1ccc(/C=C2\SC(=O)NC2=O)cc1 | 57.8% | half-life [6]: 3.37 h; Activity [2]: 620 U/L; Activity [7]: Non-toxic; Activity [8]: Non-toxic; Tmax [9]: 0.5 h; bioavailability [10]: 14.9%; Activity [3]: 677.7 U/L; Activity [11]: Non-toxic; IC50 [4]: 0.72 µM; Activity [12]: Non-toxic; Activity [5]: Active; Activity [13]: Non-toxic; Activity [14]: Non-toxic; Cp [15]: 4980 ng/mL

Structure (SMILES) | inhibition at 25 µg/mL [1] | also measured
COc1ccc(C=C2C(=O)NC(=S)NC2=O)cc1OC | 14.2% | –
N=C1NC(=O)/C(=C/c2ccccc2)S1 | 10.1% | –
O=C1C/C(=C\c2cccc(O)c2)C(=O)N1 | 11.4% | –
O=C1NC(=O)/C(=C/c2cccc(O)c2)S1 | 14.4% | –
COc1cc(/C=C2\NC(=O)NC2=O)ccc1O | 16.6% | –
O=C1NC(=O)/C(=C/c2ccc(O)cc2)N1 [4-HYDROXYPHENYLMETHYLENE HYDANTOIN] | 13% | –
O=C1NC(=O)/C(=C/c2cccc(O)c2)N1 | 4.4% | –
O=C1NC(=O)C(=Cc2ccc(Cl)cc2)C(=O)N1 | 4.1% | –
O=C1C/C(=C\c2ccccc2)C(=O)N1 | 5.7% | –
CN(C)c1ccc(/C=C2\SC(=N)NC2=O)cc1 | 14% | –
COc1ccc(/C=C2\CC(=O)NC2=O)cc1 | 13.3% | –
O=C1NC(=O)/C(=C/c2ccc(O)cc2)S1 | 25.1% | –
O=C1NC(=S)NC(=O)C1=Cc1ccc(Br)cc1 | 4.3% | –
O=C1NC(=O)/C(=C/c2ccccc2)S1 | 16.9% | –
COc1cc(/C=C2\SC(=O)NC2=O)ccc1O | 15.8% | –
O=C1NC(=O)C(=Cc2ccc(O)cc2)C(=O)N1 | 4.3% | –
O=C1NC(=O)C(=Cc2ccccc2O)C(=O)N1 | 5.8% | –
CN(C)c1ccc(C=C2C(=O)NC(=S)NC2=O)cc1 | 35.7% | Activity [2]: 2072.8 U/L; Activity [3]: 2930.2 U/L; IC50 [4]: 7.2 µM; Activity [5]: Active
O=C1NC(=O)C(=Cc2ccccc2)C(=O)N1 | 5.7% | –
COc1cc(/C=C2\SC(=N)NC2=O)ccc1O | 19.9% | –
O=C1NC(=S)NC(=O)C1=Cc1ccc(O)cc1 | 14.2% | –
O=C1NC(=S)NC(=O)C1=Cc1ccccc1O | 8.9% | –
O=C1NC(=O)/C(=C/c2ccc(Br)cc2)N1 | 14% | –
O=C1NC(=S)NC(=O)C1=Cc1cccc(O)c1 | 5.7% | –
N=C1NC(=O)/C(=C/c2ccc(Br)cc2)S1 | 16.6% | –
O=C1C/C(=C\c2ccc(Cl)cc2)C(=O)N1 | 17.9% | –
